# Reference: patent US20250360117A1, “KCNT1 INHIBITORS COMPRISING AN ISOXAZOLE OR OXADIAZOLE CORE AND METHODS OF USE” (PRAXIS PRECISION MEDICINES, INC., priority 2022, published 2025)
# Values joined by “and” are separate entries in the source; they are usually repeats but may differ in a detail not shown here. Equal values may be shown once. “Also recorded” adds a separate entry of the source.
# What was measured:
# [1] = tested on: Kcnt1^R455H/+ heterozygous mice; assay: Spontaneous interictal epileptiform discharges (spikes) on EEG; format: in vivo, mouse; settings: 75 mg/kg s.c.
# From the text: Infrequent spontaneous seizures also occur in some Kcnt1^R455H/+ heterozygous mice. This experiment sought to determine if administration of a compound of Formula (I-A) could reduce interictal spikes.
# Animals: Adult Kcnt1^R455H/+ heterozygous mice on a C57/B6J background were used in all experiments disclosed in this example. Mice were approximately 2-3 months old. No preference was made for male or female animals. This strain is almost always stillborn in the homozygous condition. Seizures occur in some but not all heterozygotes, and interictal discharges occurs reliably.
# Implantation of EEG electrodes: Mice were anesthetized with inhaled isoflurane 3-4% induction followed by approximately 1-1.5% maintenance titrated to effect. The head was fixed in a Kopf stereotactic apparatus, and the scalp was sterilized with povidone-iodine. The temperature was regulated to 37 degrees Celsius with a heating pad and rectal probe. Pre-emptive analgesia was provided with subgaleal bupivacaine 0.1% administered to form a wheal on the scalp, no more than 0.08 mL/10 g body weight. A linear midline scalp incision was made from behind the eyes to expose skull markers. Four holes were drilled (#60 drill bit): two anterior to the coronal suture (for left and right active recording), and two ⅔ of the way from the frontal to lambdoid suture (for reference and ground), […]. Screw electrodes were inserted in each burr hole (size W00-96×1.6 mm soldered to 15 mm insulated wire) and connected to a plastic pedestal (PlasticsOne E363). This assembly was then secured with dental cement. Meloxicam 5 mg/kg IP was given for post-operative analgesia.
# Drug preparation for mice under EEG: A 7.5 mg/mL solution of a compound of Formula (I-A) was prepared on the day of injection in 10% DMSO/10% Solutol/80% deionized water. After at least 72 hours of baseline recording, the compound of Formula (I-A) was delivered subcutaneously at a dose of 75 mg/kg based on pre-surgical body weight.
# EEG recording and analysis: Mice were held in a heated cage for at least 24 hours to recover before connection to the EEG recording system. Two-channel EEG with video was recorded using a Compumedics Grael EEG amplifier at 512 Hz sampling rate. The entire EEG was reviewed manually, and all interictal discharges and seizures were identified and marked. Video recordings were used to confirm epileptiform activity. Mice that had adequate recording quality and interictal spikes were selected for drug delivery. […] EEG recordings were manually scored by a reviewer blinded to treatment group. […]
# EEG data were collected and reviewed in Compumedics Profusion. […] Average interictal discharge rates were determined in the baseline period and in the first, second, and third post-injection days (FIG. 3A). […]
# [2] = tested on: Kcnt1^R455H/+ heterozygous mice; assay: PTZ-induced seizures in Kcnt1^R455H/+ heterozygous mice; format: in vivo, mouse; settings: for Convulsive seizure latency: hazard ratio (drug/vehicle): log rank test; for Latency (s) to clonic or tonic seizures with loss of posture: individual animals, 1320 s = no seizure observed over the experiment, 75 mg/kg
# Method: Kcnt1^R455H/+ heterozygous mice have increased sensitivity to PTZ seizure induction as compared with wild-type littermates. It was determined herein whether a compound of Formula (I-A) delivered prior to PTZ could delay the onset of convulsive seizures. Formula (I-A) (75 mg/kg s.c.) or a vehicle control was administered as a single dose. After a pretreatment period of one or two hours, mice were administered PTZ at a dose of 55 mg/kg for induction of seizures. Seizures were then scored based on behavior (no EEG). The latency to convulsive seizures was compared between groups to determine if the compound can prevent induced seizures.
# Animals: Adult Kcnt1^R455H/+ heterozygous C57/B6J mice were used in this example. Mice were approximately 2 months old. No preference was made for male or female animals.
# Drug preparation and delivery: A 7.5 mg/mL solution of a compound of Formula (I-A) was prepared on each day of injection in 10% DMSO/10% Solutol/80% deionized water with a volume sufficient for 10-20 animals. After at least 30 minutes of acclimatization to the testing environment, either the drug or vehicle control was delivered to each animal subcutaneously at a dose of 75 mg/kg based on current body weight.
# PTZ injection and testing: Kcnt1^R455H/+ mice were tested with PTZ 55 mg/kg IP administered 1 or 2 hours after administration of either the compound of Formula (I-A) 75 mg/kg SC or vehicle control. Mice were then monitored continuously for 30 min by an observer blinded to treatment group. […] Latency to first clonic seizure with loss of posture was recorded and compared using the time to event analysis; log-rank Mantel-Cox in GraphPad Prism, p<0.05 was considered statistically significant. Seizures induced by PTZ were scored using a modified Racine scale, and the latency to convulsive seizures was compared between drug and vehicle groups (log rank test).
# Behavior was scored live, and mice were recorded on video for later confirmation. Seizure severity scores were based on a recent report that is specifically designed for mouse PTZ experiments (Van Erum et al., Epilepsy and Behavior 2019 June; 95:51-55). Behavioral seizure scores were as follows: • −1: normal baseline • 0: whisker trembling • 1: behavioral arrest • 2: facial jerking • 3: neck jerks/myoclonus • 4: clonic (sitting) • 5: clonic, tonic-clonic (lying on belly) • 6: clonic, tonic-clonic (lying on side), and wild jumping • 7: tonic extension, possibly leading to respiratory arrest and death.
# The time at which mice reached each stage was recorded. It was difficult to reliably ascertain grade 0-2 seizures without the aid of EEG, and there was inconsistency between reviewers for stage 3-5 seizures. As the clearest and most consistent (between examiners) scores were for stage 6-7, only these were used for reporting and analysis, although earlier scores were also recorded and saved. Latency to stage 6 or above seizures were plotted as survival curves, and differences were assessed with a long rank test. Scoring was cut off after 22 minutes post-PTZ administration (1320 seconds).
# [3] = Brain exposure in pups after maternal dosing (LC-MS/MS); format: in vivo, mouse; settings: KCNT1^R455H/R455H pups, individual, brain collected when found deceased; maternal 75 mg/kg s.c.
# Method: (§1) Whole brains were collected from all pups at 14 days after birth or at the time they are found deceased. Tails were genotyped through an automated system (Transnetyx) which was previously validated against PCR-based RFLP and sequencing. The whole brains were analyzed to determine brain exposure of Formula (I-A).
# Bioanalysis of Brain Samples: Brain tissue was homogenized in 10:1 (v/wt) ratio using 10 mM PBS in methanol (2:1, v/v). 20 μL of samples were then precipitated with 200 μL IS solution (100 ng/mL Labetalol & 100 ng/mL Tolbutamide in ACN). The mixture was vortex-mixed and centrifuged at 4000 rpm for 15 min, 4° C. An aliquot of 100 μL supernatant was transferred to a sample plate and mixed with 100 μL water. The plate was shaken at 800 rpm for 10 minutes. 1 μL supernatant was then injected for LC-MS/MS analysis. A 1-3000 ng/ml PRX-0002904 calibration curve was prepared in mouse brain homogenate. Ultra-performance liquid chromatography (UPLC) parameters conditions are provided in Table 5 below, and the results are shown in Table 6 below.
# [4] = tested on: Cortical neurons from Kcnt1^R455H heterozygous mice; assay: Neuronal electrophysiology (current clamp and voltage clamp); format: cell-based, mouse; settings: 10 μM, 20 minutes, vs vehicle control
# Method: Cortical neurons from Kcnt1^R455H heterozygous mice were cultured and treated for 20 minutes with 10 μM of a compound of Formula (I-A) in DMSO. Presumed glutamatergic neurons were identified based on pyramidal morphology. Presumed GABAergic neurons were identified based on spindle morphology (and fast spiking pattern in the control recordings). Current clamp and voltage clamp recordings were performed on an Axon Multiclamp 700B amplifier. It was observed that pyramidal cells treated with vehicle control had many action potentials and mild adaptation in response to an inward current and large outward currents with depolarization.
# [5] = tested on: Kcnt1^R455H/R455H pups; assay: Survival of R455H homozygous pups after dosing of pregnant dams; format: in vivo, mouse; settings: for Age survived before death or euthanasia: individual, dams 75 mg/kg s.c.
# Method: Quraishi et. al. PMID 32081855. Without wishing to be bound by theory, it is thought that inhibition of mutant channel activity by KCNT1 inhibitors, such as the compound of Formula (I-A), during gestation might aid the survival of homozygous pups. Timed matings were performed on heterozygote breeding pairs, and a compound of Formula (I-A) was administered to the pregnant dams. No dosing of the live pups with Formula (I-A) was performed. All surviving and stillborn offspring that could be recovered were then genotyped, and brains were dissected and sent for measurement of Formula (I-A).
# Breeding and dosing: Timed matings were performed on three KCNT1^R455H+×KCNT1^R455H/+ breeding pairs. Maternal injections of Formula (I-A) (75 mg/kg s.c.) were performed for four pregnant dams from three Kcnt1^R455H/+×Kcnt1^R455H/+ breeding pairs and one Kcnt1^+/+×Kcnt1^+/+ breeding pair. Starting approximately 13 days after the mating plug was identified, pregnant dams were administered 75 mg/kg Formula (I-A) (s.c.) every 3 days (as permitted) through the time of delivery. There was some variability in the days of administration as noted. Offspring were observed daily after delivery. The records of litters and treatment dates are shown below in Table 3. In round one, two doses of Formula (I-A) were delivered to each of the two dams from the Kcnt1^R455H/+×Kcnt1^R455H/+ crosses. […] In round two, three doses of Formula (I-A) were delivered to one dam from a Kcnt1^R455H/+×Kcnt1^R455H/+ cross.
# as §1
compound,measurement,setting,value
C[C@H](NC(=O)c1cc(C(F)(F)F)nn1C)c1nc(-c2ccnc(C(F)(F)F)c2)no1 [Formula (I-A)],"interictal spike rate, first 24 hours after dosing vs preceding 72-hour baseline","[1]; N=12, p=0.005",marked per-animal reduction; also recorded: reduced
same,"interictal spike rate, second day after dosing vs baseline","[1]; N=12, p=0.042",reduction persisted
same,"interictal spike rate reduction, third day after dosing vs baseline","[1]; N=12, p>0.999",no longer evident
same,mice with a decrease in spike rates from baseline to Day 1,[1]; baseline-adjusted spike rates,11 out of 12
same,animals with PTZ-induced convulsive seizures,"[2]; 75 mg/kg s.c., 1 hour pretreatment before PTZ 55 mg/kg IP, 1/16 animals, vehicle 6/15 (40%)",6%
same,Convulsive seizure latency: hazard ratio (drug/vehicle),"[2]; 75 mg/kg s.c., 1 hour pretreatment before PTZ 55 mg/kg IP",0.13 (95% CI 0.03-0.58)
same,Convulsive seizure latency: hazard ratio (drug/vehicle),"[2]; 75 mg/kg s.c., 2 hours pretreatment before PTZ 55 mg/kg IP",0.056 (95% CI 0.019-0.161)
same,mice with a seizure that reached stage 6-7,"[2]; 75 mg/kg s.c., 2 hours prior to PTZ 55 mg/kg IP, 1 out of 20 mice, vehicle 13 out of 20 (65%)",5%
same,effect on PTZ-induced seizures (in words),"[2]; 75 mg/kg s.c., compared to vehicle-treated mice",anticonvulsant against PTZ-induced seizures; also recorded: significantly increased the latency to and reduced the incidence of PTZ-induced seizures
same,Latency (s) to clonic or tonic seizures with loss of posture,[2]; 75 mg/kg s.c. 1 hour prior to PTZ,1320 s (14×) and 190 s and 647 s
same,Latency (s) to clonic or tonic seizures with loss of posture,[2]; 75 mg/kg s.c. 2 hours prior to PTZ,1320 s (19×) and 294 s
same,Brain Homogenate Concentration,[3],15.2 ng/mL and 133 ng/mL and 109 ng/mL and 16.9 ng/mL
same,Brain Homogenate Concentration (ng/mL),[3],BLQ
same,Final brain concentration,[3],167 ng/g and 1458 ng/g and 1200 ng/g and 354 ng/g
same,Final brain concentration (ng/g),[3],BLQ
same,"action potential firing and outward currents, pyramidal cells (presumed glutamatergic)",[4],less sustained action potential firing and diminished outward currents
same,"spike rates and outward currents, presumed GABAergic neurons",[4],markedly reduced spike rates and outward currents
same,Age survived before death or euthanasia,"[5]; Kcnt1^+/+ pups, 2 or 3 doses, brains collected at 14 days",14 days
same,Age survived before death or euthanasia,"[5]; Kcnt1^R455H/+ pups, 2 or 3 doses, brains collected at 14 days",14 days
same,Age survived before death or euthanasia,"[5]; Kcnt1^R455H/R455H pups, 2 doses (litters 1, 2) or 3 doses (litter 3), pups not dosed, dams given 2 doses",1 days (3×) and 2 days
same,Age survived before death or euthanasia,"[5]; Kcnt1^R455H/R455H pups, 2 doses (litters 1, 2) or 3 doses (litter 3), pups not dosed, dams given 3 doses",4 days
same,Kcnt1^R455H/R455H pups that survived multiple days,[5]; maternal dosing 75 mg/kg s.c.,Two of five
same,survival of Kcnt1^R455H/R455H pups born alive (in words),"[5]; round one: two doses 75 mg/kg s.c. to each of two dams, four pups born alive",three surviving for one day and one surviving two days
same,survival of Kcnt1^R455H/R455H pup (in words),"[5]; round two: three doses 75 mg/kg s.c. to one dam, one pup",survived for four days
